Measurements published in US6699686B1, “Modified nuclear glucocorticoid receptor, fusion protein, and DNA fragments coding for said receptor and said fusion protein” (Association pour le Development de la Recherche en …, priority 1996, dated 2004).

Experiments:
hGR(I747/T) = target: T1, hGR(I747/T) (Homo sapiens, UniProt P04150, I747T); assay: Transcriptional activation of pTAT-tk-Luc luciferase reporter in transiently transfected CV-1 cells; format: cell-based; conditions: CV-1 cells, pTAT-tk-Luc; for Luciferase activity % hGR (I747/T): 24 h ligand, mean of three independent assays; for EC50 hGR (I747/T): ligand concentration giving 50% of maximum transcriptional response
T1 construct: The same shift was observed as with the complete GR (I747/T) mutant; expressed in transfected cells
T1 sequence (P04150 1-777 I747T): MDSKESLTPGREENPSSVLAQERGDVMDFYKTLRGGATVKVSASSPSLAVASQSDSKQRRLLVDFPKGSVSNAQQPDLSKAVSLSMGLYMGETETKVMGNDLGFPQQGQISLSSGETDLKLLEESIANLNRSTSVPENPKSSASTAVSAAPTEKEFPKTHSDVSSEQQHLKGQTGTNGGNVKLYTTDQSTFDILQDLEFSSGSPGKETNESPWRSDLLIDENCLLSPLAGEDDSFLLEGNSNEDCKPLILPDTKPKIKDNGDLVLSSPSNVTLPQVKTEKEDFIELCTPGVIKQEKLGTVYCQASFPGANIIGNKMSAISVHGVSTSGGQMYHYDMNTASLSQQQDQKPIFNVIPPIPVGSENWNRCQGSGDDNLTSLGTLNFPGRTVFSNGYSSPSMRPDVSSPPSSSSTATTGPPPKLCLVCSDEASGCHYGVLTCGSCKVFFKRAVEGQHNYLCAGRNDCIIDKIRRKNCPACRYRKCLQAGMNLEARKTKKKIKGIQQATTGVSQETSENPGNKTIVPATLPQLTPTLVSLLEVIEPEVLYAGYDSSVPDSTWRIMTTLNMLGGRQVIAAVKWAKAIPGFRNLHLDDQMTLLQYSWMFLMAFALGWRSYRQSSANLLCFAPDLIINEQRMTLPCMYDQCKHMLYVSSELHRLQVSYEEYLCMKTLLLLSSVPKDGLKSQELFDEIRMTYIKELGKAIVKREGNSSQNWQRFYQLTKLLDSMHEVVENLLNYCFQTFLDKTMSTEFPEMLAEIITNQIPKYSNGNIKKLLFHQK
Description: The receptors were transiently expressed in GR-free CV-1 cells, conjointly with a luciferase reporter gene under the control of the tyrosine aminotransferase promoter (pTAT-tk-Luc).
After transfection, the cells were incubated for 24 hours with increasing concentrations of Dex, and they were then subjected to an assay of the β-galactosidase and luciferase activities, as described in “Materials and Methods”. The luciferase activity was normalized with the β-galactosidase activity, and the value obtained in the absence of ligand was subtracted for each point. The results were expressed as a percentage of the maximum luciferase activity obtained for each receptor. Each point is the mean±standard deviation of the mean of four separate determinations carried out in duplicate. […] The [^3H] steroid attached was measured after treatment with dextran-coated charcoal. The results presented are those for a single assay carried out in duplicate and representative of three separate assays.
Co-transfections were carried out and dose-response curves were constructed as described in FIG. 2. […] The assays of luciferase and β-galactosidase activity were carried out as described in “Materials and Methods”. The mean values of three independent assays are given in this table. nm=not measurable.
The CV-1 and Cos-7 cells were cultured in Dulbeco's modified Eagle's medium (DMEM) containing 10% (v/v) of fetal calf serum (FCS) (Gibco, Grand Island, N.Y.), in a humidified atmosphere containing 5% CO2. The HeLa cells were cultured under the same conditions. Transient transfections were carried out in 6-well multiplates according to the calcium phosphate procedure already described (42). A reference recombinant plasmid, pCMV-βgal, expressing bacterial β-galactosidase, was transfected conjointly with the receptor expression vector and the corresponding reporter gene so as to correct possible variations in he transfection efficiency. The precipitate was removed by washing after 24 hours, and the cells were kept in DMEX without FCS but containing hormone. After another 24 hours, the cells were rinsed and lysed for 15 minutes with 0.3 ml of lysis buffer [25 mM Tris.phosphate, pH 7.8, 8 mM […], 1% Triton X100, 10% glycerol (48)]. The corresponding luciferase activity as determined on an aliquot fraction (0.1 ml), by evaluation of the luminescence peak (for an integration time of 15 seconds), after injection of 0.1 ml of 1 mM luciferin in an LKB luminometer. The β-galactosidase was determined by the method modified by Bocquel et al. (49), for controlling the efficiency of each transfection.
The reporter gene pTAT-tk-Luc was provided by D. Gagne and was constructed as follows: an intermediate plasmid pTAT was first generated by insertion of the 966 bp EcoRI-BamHI segment obtained from pKT531 [offered freely by T. Grande (50)] into the corresponding sites of the vector pUC19 (Pharmacia). The fragment containing the sequence coding for the firefly luciferase and the thymidine kinase (tk) minimal promoter obtained from the Herpes simplex virus was isolated in the form of a BamHI fragment from pvit-tk-Luc (51) and inserted, downstream of the TAT promoter, into the corresponding site of pTAT. The reporter plasmid pGRE-tk-Luc was constructed by ligation of the fragment of HindIII-BglII digestion of pGRE-tk-CAT (52), which contains a synthetic GRE (AGAACAcagTGTTCT) upstream of the tk minimal promoter, into the HindIII-BglII sites of pLuc (53). The reporter gene p(17M)5-βGlob-Luc has been previously described (54). The reporter plasmid p(17M)5-tata-Luc was constructed from the plasmid p(17M)5-tata-CAT (55) by digestion with XhoI-BamHI and isolation of the fragment containing (17M5)-tata. This fragment was then inserted into the vector pGL2 (Promega) digested with the same restriction enzymes.

Cre-LBD[GR(I747/T)] = target: T2, Cre-LBD[GR(I747/T)] (Homo sapiens, UniProt P04150, I747T); assay: PCR test of recombinase activity in HeLa cells cotransfected with pCre-LBD[GR(I747/T)] and pRXRα(LNL); format: cell-based; conditions: ligand 10^−7 M, 72 hours
T2 construct: the region containing the mutated LBD of HG1 [aa 500-777]; Cre recombinase aa 1-343 (bacteriophage P1); F region of the human estrogen receptor (aa 553-595); expressed in transfected cells
T2 sequence (P04150 500-777 I747T): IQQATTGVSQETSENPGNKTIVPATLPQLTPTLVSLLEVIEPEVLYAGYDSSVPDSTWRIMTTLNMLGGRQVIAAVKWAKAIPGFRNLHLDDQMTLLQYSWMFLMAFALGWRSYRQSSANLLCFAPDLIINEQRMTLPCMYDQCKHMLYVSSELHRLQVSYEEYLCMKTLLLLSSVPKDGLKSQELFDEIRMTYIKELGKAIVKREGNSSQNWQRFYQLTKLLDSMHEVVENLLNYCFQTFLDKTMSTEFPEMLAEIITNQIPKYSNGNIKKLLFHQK
Description: [optionally cotransfected with 5 μg of the vector pRXRα^(LNL) for the HeLa cells] with the aid of an electroporator (Bio-Rad gene pulser), set at 200 V and 960 μF. The cells were then inoculated at 10^6 cells per 100 mm dish and treated, if necessary, with ligands.
The products of the reaction were separated on acrylamide gel and stained with ethidium bromide. Lane 1 corresponds to the loading of the 1 kb ladder size marker (GibcoBRL).

Row | Structure (SMILES) | transactivation by the I747/T mutant receptor compared with wild-type receptor (hGR(I747/T)) | Luciferase activity % hGR (I747/T) (hGR(I747/T)) | EC50 hGR (I747/T) (hGR(I747/T)) | recombinase activity (PCR band of recombinant fragment) (Cre-LBD[GR(I747/T)])
1 | C[C@]12CCC(=O)C=C1CC[C@@H]1[C@@H]2[C@@H](O)C[C@]2(C=O)[C@@H](C(=O)CO)CC[C@@H]12 [Aldosterone, aldosterone] | suppressed | 0% | nM | only the fragment corresponding to the wild-type allele can be detected
2 | C[C@]12CCC(=O)C=C1CC[C@@H]1[C@@H]2[C@@H](O)C[C@@]2(C)[C@H]1CC[C@]2(O)C(=O)CO [Cortisol, cortisol] | greatly reduced | 15% | – | only the fragment corresponding to the wild-type allele can be detected
3 | C[C@]12C[C@H](O)[C@H]3[C@@H](CCC4=CC(=O)CC[C@@]43C)[C@@H]1CC[C@@H]2C(=O)CO [Corticosterone, corticosterone] | suppressed | 0% | nM | only the fragment corresponding to the wild-type allele can be detected
4 | C[C@@H]1C[C@H]2[C@@H]3CCC4=CC(=O)C=C[C@]4(C)[C@@]3(F)[C@@H](O)C[C@]2(C)[C@@]1(O)C(=O)CO [Dexamethasone, dexamethasone] | – | 100% | – | –
